Target: human FAAH (Fatty Acid Amide Hydrolase) (Homo sapiens (Human), UniProt O00519)
Assay: FAAH inhibition, human FAAH CHO whole cell format
Assay type: cell-based
Excerpt: To assist in assay development stable cell lines for human, murine and rat full length FAAH were developed. […] The full length FAAH was subcloned into the mammalian expression vector, pcDEF.neo, using XbaI and EcoRI restriction sites and used for stable cell line generation.
The full length murine FAAH was subcloned into the mammalian expression vector, pcDEFneo using either EcoRI (murine) or KpnI and EcoRI (rat) restriction sites. Chinese hamster ovary cells (CHO) were transfected following manufacturers protocol (AMAXA). Forty eight hours post transfection, cells were trypsinized and transferred to 96 well plates in Iscove's DMEM media supplemented with 2 mM Glutamine, 10% fetal calf serum, 1 mg/ml geneticin and HT Supplement (0.1 mM sodium hypoxanthine, 0.016 mM thymidine) in order to isolate single clones. […] Following removal of tissue culture media cells were dislodged following addition of Cellstripper (Mediatech, Inc. Manassas, Va.) and transferred to 96 well black clear bottom assay plate, centrifuged at 1,000 rpm for 3 mins and media removed and replaced with assay buffer (50 mM Tris pH8.0, 1 mM EDTA, 0.1% fatty acid free BSA). The reaction was initiated by addition of fluorescent substrate, AMC Arachidonoyl Amide (Cayman Chemical, Ann Arbor, Mich.) to 1 μM and reaction allowed to proceed for 2 hours at room temperature. Release of fluorescence was monitored in a CytoFluor Multiplate Reader.
Assays are performed on either cell lysate or microsome fractions prepared as described or in whole cell format employing either the fluorescent substrate AAMCA (Cayman chemical, Ann Arbor, Mich.,) or ^3H-anandamide ([ETHANOLAMINE-1-3H] American Radiolabeled Chemicals; 1 mCi/ml). […] AAMCA substrate was used to achieve a final concentration of 1 μM and reaction allowed to proceed at room temperature for 1-3 hours. […] Whole cell assay is conducted with cells harvested after rinsing tissue culture flasks three times with Ca^++Mg^++ free PBS, incubating for 10 min in Enzyme free dissociation media and centrifuging for 5 minutes at 1,000 rpm in table top centrifuge. Cells are resuspended in assay buffer at desired cell number in (4×10^4 cells/assay in 96-well format; 1×10^4 cells/assay in 384-well format) and assayed as described.

Sequence of human FAAH (Fatty Acid Amide Hydrolase) (O00519 whole entry): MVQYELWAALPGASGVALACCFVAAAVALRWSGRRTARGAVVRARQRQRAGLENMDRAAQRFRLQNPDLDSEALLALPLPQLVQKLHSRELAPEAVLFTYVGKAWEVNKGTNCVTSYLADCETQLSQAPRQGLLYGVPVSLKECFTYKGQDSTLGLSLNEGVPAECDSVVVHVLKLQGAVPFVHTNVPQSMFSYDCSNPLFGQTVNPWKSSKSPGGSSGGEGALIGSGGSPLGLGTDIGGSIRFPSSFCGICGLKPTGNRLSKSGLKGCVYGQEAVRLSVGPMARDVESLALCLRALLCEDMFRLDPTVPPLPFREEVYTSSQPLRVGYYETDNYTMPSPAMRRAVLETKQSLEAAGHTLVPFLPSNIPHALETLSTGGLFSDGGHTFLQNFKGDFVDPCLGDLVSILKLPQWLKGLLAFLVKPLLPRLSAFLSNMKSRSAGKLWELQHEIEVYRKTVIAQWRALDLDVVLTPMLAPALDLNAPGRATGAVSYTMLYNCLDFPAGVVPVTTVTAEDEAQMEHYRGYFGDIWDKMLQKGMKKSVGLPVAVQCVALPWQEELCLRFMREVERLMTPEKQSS

Row | IC50 [nM] | SMILES
1 | 314 | CC(C)(O)c1ccc(-c2nc(C3CCOCC3)oc2Sc2ccc(Cl)cn2)cn1 [Example A7.1, 2-(5-{5-[(5-chloropyridin-2-yl)sulfanyl]-2-(tetrahydro-2H-pyran-4-yl)-1,3-oxazol-4-yl}pyridin-2-yl)propan-2-ol]
2 | 852 | CC(C)(O)c1ccc(-c2nc(C3CCOCC3)oc2Sc2ncc(Cl)cn2)cn1 [Example A7.3, 2-(5-{5-[(5-chloropyrimidin-2-yl)sulfanyl]-2-(tetrahydro-2H-pyran-4-yl)-1,3-oxazol-4-yl}pyridin-2-yl)propan-2-ol]
3 | 454 | COc1ccc(Sc2oc(C3CCOCC3)nc2-c2ccc(C(C)(C)O)nc2)nc1 [Example A7.4, 2-(5-{5-[(5-methoxypyridin-2-yl)sulfanyl]-2-(tetrahydro-2H-pyran-4-yl)-1,3-oxazol-4-yl}pyridin-2-yl)propan-2-ol]
4 | 4250 | CC(C)(O)c1ccc(-c2nc(C3CCOCC3)oc2Sc2ccc(F)cn2)cn1 [Example A7.5, 2-(5-{5-[(5-fluoropyridin-2-yl)sulfanyl]-2-(tetrahydro-2H-pyran-4-yl)-1,3-oxazol-4-yl}pyridin-2-yl)propan-2-ol]
5 | 4140 | CC(C)(O)c1ccc(-c2nc(C3CCOCC3)oc2Sc2ccc(C3CC3)cn2)cn1 [Example A7.6, 2-(5-{5-{(5-cyclopropylpyridin-2-yl)sulfanyl]-2-(tetrahydro-2H-pyran-4-yl)-1,3-oxazol-4-yl}pyridin-2-yl)propan-2-ol]
6 | 2210 | CC(C)(O)c1ccc(-c2nc(C3CCOCC3)oc2Sc2ccc(OC(F)F)cn2)cn1 [Example A7.7, 2-{5-[5-{[5-(difluoromethoxy)pyridin-2-yl]sulfanyl}-2-(tetrahydro-2H-pyran-4-yl)-1,3-oxazol-4-yl]pyridin-2-yl}propan-2-ol]
7 | 1190 | COc1ccc(Sc2oc(C3CCOCC3)nc2-c2ccc(C(C)(C)O)nc2)cn1 [Example A7.8, 2-(5-{5-{(6-methoxypyridin-3-yl)sulfanyl]-2-(tetrahydro-2H-pyran-4-yl)-1,3-oxazol-4-yl}pyridin-2-yl)propan-2-ol]
8 | ≥ 10000 | CC(C)(O)c1ccc(-c2nc(C3CCOCC3)oc2Sc2cccc(Cl)c2)cn1 [Example A7.9, 2-(5-{5-[(3-chlorophenyl)sulfanyl]-2-(tetrahydro-2H-pyran-4-yl)-1,3-oxazol-4-yl}pyridin-2-yl)propan-2-ol]
9 | ≥ 10000 | CC(C)(O)c1ccc(-c2nc(C3CCOCC3)oc2Sc2ccccc2Cl)cn1 [Example A7.10, 2-(5-{5-[(2-chlorophenyl)sulfanyl]-2-(tetrahydro-2H-pyran-4-yl)-1,3-oxazol-4-yl}pyridin-2-yl)propan-2-ol]
10 | 701 | CC(C)(O)c1ccc(-c2nc(C3CCOCC3)oc2Cc2ccc(Cl)cc2)cn1 [Example A7.11, 2-{5-[5-(4-chlorobenzyl)-2-(tetrahydro-2H-pyran-4-yl)-1,3-oxazol-4-yl]pyridin-2-yl}propan-2-ol]
11 | 290 | CC(C)(O)c1ccc(-c2nc(C3CCOCC3)oc2Oc2ccc(Cl)cc2)cn1 [Example A7.12, 2-{5-[5-(4-chlorophenoxy)-2-(tetrahydro-2H-pyran-4-yl)-1,3-oxazol-4-yl]pyridin-2-yl}propan2-ol]
12 | ≥ 10000 | CN1CCN(CCOC(=O)N2CCC(c3nc(-c4ccc([S+](C)[O-])cc4)c(Sc4ccc(Cl)cn4)o3)CC2)CC1 (stereo not drawn) [Example A7.28, 2-(4-methylpiperazin-1-yl)ethyl 4-{5-[(5-chloropyridin-2-yl)sulfanyl]-4-[4-(methylsulfinyl)phenyl]-1,3-oxazol-2-yl}piperidine-1-carboxylate]
13 | 142 | COC(=O)N1CCC(c2nc(C3CCOCC3)oc2Sc2ccc(Cl)cn2)CC1 [Example A7.32, methyl 4-{5-[(5-chloropyridin-2-yl)sulfanyl]-2-(tetrahydro-2H-pyran-4-yl)-1,3-oxazol-4-yl}piperidine-1-carboxylate]
14 | 1810 | CC(=O)N1CCC(c2nc(C3CCOCC3)oc2Sc2ccc(Cl)cn2)CC1 [Example A7.33, 1-(4-{5-[(5-chloropyridin-2-yl)sulfanyl]-2-(tetrahydro-2H-pyran-4-yl)-1,3-oxazol-4-yl}piperidin-1-yl)ethanone]
15 | 150 | CCOC(=O)N1CCC(c2nc(C3CCOCC3)oc2Sc2ccc(Cl)cn2)CC1 [Example A7.34, ethyl 4-{5-[(5-chloropyridin-2-yl)sulfanyl}-2-(tetrahydro-2H-pyran-4-yl)-1,3-oxazol-4-yl}piperidine-1-carboxylate]
16 | ≥ 10000 | O=C(OCc1ccccc1)N1CCC(c2nc(C3CCOCC3)oc2Sc2ccc(Cl)cn2)CC1 [Example A7.35, benzyl 4-{5-[(5-chloropyridin-2-yl)sulfanyl]-2-(tetrahydro-2H-pyran-4-yl)-1,3-oxazol-4-yl}piperidine-1-carboxylate]
17 | ≥ 10000 | CC(C)COC(=O)N1CCC(c2nc(C3CCOCC3)oc2Sc2ccc(Cl)cn2)CC1 [Example A7.36, 2-methylpropyl 4-{5-[(5-chloropyridin-2-yl)sulfanyl]-2-(tetrahydro-2H-pyran-4-yl)-1,3-oxazol-4-yl}piperidine-1-carboxylate]
18 | 1920 | CC(C)OC(=O)N1CCC(c2nc(C3CCOCC3)oc2Sc2ccc(Cl)cn2)CC1 [Example A7.37, propan-2-yl 4-{5-[(5-chloropyridin-2-yl)sulfanyl]-2-(tetrahydro-2H-pyran-4-yl)-1,3-oxazol-4-yl}piperidine-1-carboxylate]
19 | ≥ 10000 | COCCOC(=O)N1CCC(c2nc(C3CCOCC3)oc2Sc2ccc(Cl)cn2)CC1 [Example A7.38]
20 | 2810 | COc1ccc(OC(=O)N2CCC(c3nc(C4CCOCC4)oc3Sc3ccc(Cl)cn3)CC2)cc1 [Example A7.39, 4-methoxyphenyl 4-{5-[(5-chloropyridin-2-yl)sulfanyl]-2-(tetrahydro-2H-pyran-4-yl)-1,3-oxazol-4-yl}piperidine-1-carboxylate]
21 | 9700 | CCNC(=O)N1CCC(c2nc(C3CCOCC3)oc2Sc2ccc(Cl)cn2)CC1 [Example A7.40, 4-{5-[(5-chloropyridin-2-yl)sulfanyl]-2-(tetrahydro-2H-pyran-4-yl)-1,3-oxazol-4-yl}-N-ethylpiperidine-1-carboxamide]
22 | ≥ 10000 | C[N+]1(C)CCN(c2ccc(-c3nc(C4CCOCC4)oc3Sc3ccc(Cl)cc3)cn2)CC1 [Example B5.14, 4-(5-{5-[(4-chlorophenyl)sulfanyl]-2-(tetrahydro-2H-pyran-4-yl)-1,3-oxazol-4-yl}pyridin-2-yl)-1,1-dimethylpiperazin-1-ium]
23 | 1530 | CC(c1ccc(-c2nc(C3CCOCC3)oc2Sc2ccc(Cl)cc2)cc1)N1CCOCC1 (stereo not drawn) [Example B5.17, 4-[1-(4-{5-[(4-chlorophenyl)sulfanyl]-2-(tetrahydro-2H-pyran-4-yl)-1,3-oxazol-4-yl}phenyl)ethyl]morpholine]
24 | 375 | O=C(c1ccc(-c2nc(C3CCOCC3)oc2Sc2ccc(Cl)cc2)cc1)N1CC2CC1CO2 (stereo not drawn) [Example B5.18, (4-{5-[(4-chlorophenyl)sulfanyl]-2-(tetrahydro-2H-pyran-4-yl)-1,3-oxazol-4-yl}phenyl)(2-oxa-5-azabicyclo[2.2.1]hept-5-yl)methanone]
25 | 2670 | O=C(c1ccc(-c2nc(C3CCOCC3)oc2Sc2ccc(Cl)cc2)cc1)N1CCC(O)CC1 [Example B5.19, (4-{5-[(4-chlorophenyl)sulfanyl]-2-(tetrahydro-2H-pyran-4-yl)-1,3-oxazol-4-yl}phenyl)(4-hydroxypiperidin-1-yl)methanone]
26 | 383 | O=C(c1ccc(-c2nc(C3CCOCC3)oc2Sc2ccc(Cl)cc2)cc1)N1CCOC1 [Example B5.20, (4-{5-[(4-chlorophenyl)sulfanyl]-2-(tetrahydro-2H-pyran-4-yl)-1,3-oxazol-4-yl}phenyl)(1,3-oxazolidin-3-yl)methanone]
27 | 707 | Clc1ccc(Sc2oc(C3CCOCC3)nc2-c2ccc(N3CCNCC3)cc2)cc1 [Example B5.21, 1-(4-{5-[(4-chlorophenyl)sulfanyl]-2-(tetrahydro-2H-pyran-4-yl)-1,3-oxazol-4-yl}phenyl)piperazine]
28 | 40.3 | O=S1(=O)CCN(c2ccc(-c3nc(C4CCOCC4)oc3Sc3ccc(Cl)cc3)cc2)CC1 [Example B5.22, 4-(4-{5-[(4-chlorophenyl)sulfanyl]-2-(tetrahydro-2H-pyran-4-yl)-1,3-oxazol-4-yl}phenyl)thiomorpholine 1,1-dioxide]
29 | 774 | Clc1ccc(Sc2oc(C3CCOCC3)nc2-c2ccc3nncn3c2)cc1 [Example B5.23, 6-{5-[(4-chlorophenyl)sulfanyl]-2-(tetrahydro-2H-pyran-4-yl)-1,3-oxazol-4-yl}[1,2,4]triazolo[4,3-a]pyridine]
30 | ≥ 10000 | O=C(c1ccc(-c2nc(C3CCOCC3)oc2Sc2ccc(Cl)cc2)cn1)N1CCOCC1 [Example B5.24, (5-{5-[(4-chlorophenyl)sulfanyl]-2-(tetrahydro-2H-pyran-4-yl)-1,3-oxazol-4-yl}pyridin-2-yl)(morpholin-4-yl)methanone]

From patent US9193697B2, “Oxazole derivatives useful as modulators of FAAH” (MERCK SHARP & DOHME CORP., priority 2010, dated 2015)
